Measurements from patent US20230265098A1, “ALKYNE QUINAZOLINE DERIVATIVES AS INHIBITORS OF ERBB2” (EnLiven Therapeutics, Inc., priority 2020, published 2023).

Columns and labels:
Assay in all cases: Cell viability assay (CellTiter Glo)
Type in all cases: cell-based, mouse
[1] = molecular target: T1, Ba/F3 ERBB2-P780_Y781insGSP (Homo sapiens, UniProt P04626, DUP778-780, cells depend on it); conditions: 72 hours; 3000 cells per well, 96-well plates; read-out: Cell viability IC50, nM, Ba/F3 ERBB2-P780_Y781insGSP
T1 construct: Ba/F3 cell lines were engineered to express human ERBB2 or EGFR kinases, rendering the cells IL-3 independent
Protocol: Cells were treated with compounds, and cell viability was measured as a metric of kinase inhibition.
The Ba/F3 cell line is IL-3-dependent mouse cell line derived from the C3H mouse strain. Ba/F3 cell lines were engineered to express human ERBB2 or EGFR kinases, rendering the cells IL-3 independent. The lines were generated via retroviral transduction utilizing a Moloney murine leukemia virus (MMLV) promoter, and constructs are stably integrated into the cell genome.
Similarly, Ba/F3 cell lines engineered to express EGFR, ERBB2, or ERBB2 mutants were grown, harvested, counted and seeded at 3000 cells per well in 96-well plates for the data sets shown in Tables B3-B4, and seeded at 300 cells per well in 384-well plates for the data set shown in Table B5. A subset of wells contained media only (low control, “LC”).
Table B2 provides the growth media and number of cells seeded per well for the each cell line.
Compounds were dissolved in DMSO and serially diluted. Serially-diluted compound or a DMSO only control (high control, “HC”) was added to the plated cells in each well. […] The final proportion of DMSO never exceeded 0.1%.
Plates were placed in a 37° C., 5% CO2 incubator for 72 hours. Plates were then removed from the incubator and equilibrated for 15 minutes at room temperature. 40 IA of CellTiter Glo reagent (Promega) was added to measure the relative level of metabolically active cells by quantifying intracellular ATP concentrations. Plates were incubated for 30 minutes at room temperature, and luminescence was measured. […] Graphical curves were fitted using a nonlinear regression model with a sigmoidal dose response.

[2] = molecular target: T2, Ba/F3 ERBB2-G776VC (Homo sapiens, UniProt P04626, DELINS776-776VC, cells depend on it); conditions: 72 hours; 3000 cells per well, 96-well plates; read-out: Cell viability IC50, nM, Ba/F3 ERBB2-G776VC
T2 construct: Ba/F3 cell lines were engineered to express human ERBB2 or EGFR kinases, rendering the cells IL-3 independent
Outline: (§1)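 Murine Ba/F3 cells made IL-3-independent by retroviral human EGFR or ERBB2 were seeded at 3000 or 300 cells per well and exposed to serially diluted compound (DMSO ≤0.1%) for 72 hours at 37° C, 5% CO2. CellTiter Glo luminescence was normalised to DMSO and media-only controls and fitted to a sigmoidal dose-response.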

[3] = molecular target: T3, Ba/F3 ERBB2-V777L (Homo sapiens, UniProt P04626, V777L, cells depend on it); conditions: 72 hours; 3000 cells per well, 96-well plates; read-out: Cell viability IC50, nM, Ba/F3 ERBB2-V777L
T3 construct: Ba/F3 cell lines were engineered to express human ERBB2 or EGFR kinases, rendering the cells IL-3 independent
Outline: as §1

[4] = molecular target: T4, Ba/F3 ERBB2 wt (Homo sapiens, UniProt P04626); conditions: 72 hours; 3000 cells per well, 96-well plates; read-out: Cell viability IC50, nM, Ba/F3 ERBB2 wt
T4 construct: Ba/F3 cell lines were engineered to express human ERBB2 or EGFR kinases, rendering the cells IL-3 independent
Outline: as §1

[5] = molecular target: T5, Ba/F3 ERBB2-L869R (Homo sapiens, UniProt P04626, L869R, cells depend on it); conditions: 72 hours; 3000 cells per well, 96-well plates; read-out: Cell viability IC50, nM, Ba/F3 ERBB2-L869R
T5 construct: Ba/F3 cell lines were engineered to express human ERBB2 or EGFR kinases, rendering the cells IL-3 independent
Outline: as §1

[6] = molecular target: T6, Ba/F3 ERBB2-T798M (Homo sapiens, UniProt P04626, T798M, cells depend on it); conditions: 72 hours; 3000 cells per well, 96-well plates; read-out: Cell viability IC50, nM, Ba/F3 ERBB2-T798M
T6 construct: Ba/F3 cell lines were engineered to express human ERBB2 or EGFR kinases, rendering the cells IL-3 independent
Outline: as §1

[7] = molecular target: T7, Ba/F3 ERBB2-V777_G778insGC (Homo sapiens, UniProt P04626, INS778CG, cells depend on it); conditions: 72 hours; 3000 cells per well, 96-well plates; read-out: Cell viability IC50, nM, Ba/F3 ERBB2-V777_G778insGC
T7 construct: Ba/F3 cell lines were engineered to express human ERBB2 or EGFR kinases, rendering the cells IL-3 independent
Outline: as §1

[8] = molecular target: T8, Ba/F3 ERBB2-L755S (Homo sapiens, UniProt P04626, L755S, cells depend on it); conditions: 72 hours; 3000 cells per well, 96-well plates; read-out: Cell viability IC50, nM, Ba/F3 ERBB2-L755S
T8 construct: Ba/F3 cell lines were engineered to express human ERBB2 or EGFR kinases, rendering the cells IL-3 independent
Outline: as §1

[9] = molecular target: T9, Ba/F3 ERBB2 A775_G776insYVMA (Homo sapiens, UniProt P04626, DUP772-775, cells depend on it); conditions: 72 hours; 3000 cells per well, 96-well plates (Tables B3-B4); read-out: Cell viability IC50, nM, Ba/F3 ERBB2 A775_G776insYVMA
T9 construct: Ba/F3 cell lines were engineered to express human ERBB2 or EGFR kinases, rendering the cells IL-3 independent
Outline: as §1

T6 sequence (P04626 whole entry T798M): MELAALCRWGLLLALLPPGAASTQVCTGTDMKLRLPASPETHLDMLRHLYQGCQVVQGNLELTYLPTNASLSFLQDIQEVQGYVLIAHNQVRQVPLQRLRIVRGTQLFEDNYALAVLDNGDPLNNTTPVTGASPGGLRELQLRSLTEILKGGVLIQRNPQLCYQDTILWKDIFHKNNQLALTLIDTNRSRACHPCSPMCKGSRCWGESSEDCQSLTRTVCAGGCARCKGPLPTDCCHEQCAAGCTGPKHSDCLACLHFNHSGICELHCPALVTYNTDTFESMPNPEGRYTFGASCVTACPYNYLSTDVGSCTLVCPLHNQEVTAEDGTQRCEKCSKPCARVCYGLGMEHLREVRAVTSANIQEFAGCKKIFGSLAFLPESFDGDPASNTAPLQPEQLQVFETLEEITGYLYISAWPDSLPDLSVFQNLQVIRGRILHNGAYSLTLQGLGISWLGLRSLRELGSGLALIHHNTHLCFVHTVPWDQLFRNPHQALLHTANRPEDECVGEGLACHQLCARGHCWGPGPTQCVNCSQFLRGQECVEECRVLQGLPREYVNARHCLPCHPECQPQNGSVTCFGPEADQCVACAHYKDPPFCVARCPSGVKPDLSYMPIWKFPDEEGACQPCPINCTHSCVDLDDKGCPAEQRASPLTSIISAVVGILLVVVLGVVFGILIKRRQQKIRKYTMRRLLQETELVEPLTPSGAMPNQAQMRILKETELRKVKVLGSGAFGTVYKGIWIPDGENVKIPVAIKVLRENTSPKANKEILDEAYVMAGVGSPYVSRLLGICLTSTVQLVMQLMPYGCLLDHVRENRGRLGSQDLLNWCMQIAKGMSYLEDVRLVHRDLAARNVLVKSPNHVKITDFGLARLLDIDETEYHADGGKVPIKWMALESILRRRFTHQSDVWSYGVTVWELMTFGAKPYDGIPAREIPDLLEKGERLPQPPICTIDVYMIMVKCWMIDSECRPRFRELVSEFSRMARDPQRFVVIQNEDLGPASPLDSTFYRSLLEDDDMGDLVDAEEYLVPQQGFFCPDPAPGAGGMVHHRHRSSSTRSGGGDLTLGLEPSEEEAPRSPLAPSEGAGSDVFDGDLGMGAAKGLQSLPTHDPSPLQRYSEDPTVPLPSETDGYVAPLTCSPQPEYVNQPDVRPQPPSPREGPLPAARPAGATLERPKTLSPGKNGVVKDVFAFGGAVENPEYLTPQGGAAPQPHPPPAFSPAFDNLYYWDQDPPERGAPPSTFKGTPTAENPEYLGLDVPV
T4 sequence (P04626 whole entry, change not shown): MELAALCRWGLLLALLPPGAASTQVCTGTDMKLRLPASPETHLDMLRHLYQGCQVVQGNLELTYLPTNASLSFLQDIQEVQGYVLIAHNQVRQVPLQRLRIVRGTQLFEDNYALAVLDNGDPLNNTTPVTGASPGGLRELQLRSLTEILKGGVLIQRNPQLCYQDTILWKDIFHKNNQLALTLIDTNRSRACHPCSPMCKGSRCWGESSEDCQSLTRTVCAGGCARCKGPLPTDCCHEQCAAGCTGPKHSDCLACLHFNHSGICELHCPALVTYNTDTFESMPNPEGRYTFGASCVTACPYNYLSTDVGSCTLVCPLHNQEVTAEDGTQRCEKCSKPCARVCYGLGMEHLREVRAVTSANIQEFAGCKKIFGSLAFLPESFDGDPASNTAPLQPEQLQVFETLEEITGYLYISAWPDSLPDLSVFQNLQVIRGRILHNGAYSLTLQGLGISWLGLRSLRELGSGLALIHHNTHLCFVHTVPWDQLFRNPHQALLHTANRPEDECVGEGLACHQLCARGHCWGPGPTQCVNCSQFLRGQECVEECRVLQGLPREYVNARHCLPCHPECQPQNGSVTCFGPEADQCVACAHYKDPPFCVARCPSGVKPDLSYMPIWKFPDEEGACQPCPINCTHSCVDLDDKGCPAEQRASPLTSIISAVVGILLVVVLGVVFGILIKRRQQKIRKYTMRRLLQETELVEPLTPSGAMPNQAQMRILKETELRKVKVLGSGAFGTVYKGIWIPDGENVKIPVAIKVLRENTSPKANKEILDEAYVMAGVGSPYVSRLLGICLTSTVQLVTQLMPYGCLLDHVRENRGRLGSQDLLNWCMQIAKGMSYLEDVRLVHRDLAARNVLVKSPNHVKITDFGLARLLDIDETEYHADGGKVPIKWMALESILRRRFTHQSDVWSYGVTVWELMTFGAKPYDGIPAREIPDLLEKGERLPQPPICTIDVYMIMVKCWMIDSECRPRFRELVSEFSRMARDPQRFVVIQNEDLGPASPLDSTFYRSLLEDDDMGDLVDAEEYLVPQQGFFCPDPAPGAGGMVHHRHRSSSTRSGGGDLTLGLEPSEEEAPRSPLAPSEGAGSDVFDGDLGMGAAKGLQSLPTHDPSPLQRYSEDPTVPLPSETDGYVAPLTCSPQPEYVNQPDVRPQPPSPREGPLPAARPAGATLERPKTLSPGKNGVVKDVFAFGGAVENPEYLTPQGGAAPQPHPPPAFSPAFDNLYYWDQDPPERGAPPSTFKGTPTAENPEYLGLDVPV
T2 sequence (P04626 with tags, fused parts or gaps DELINS776-776VC): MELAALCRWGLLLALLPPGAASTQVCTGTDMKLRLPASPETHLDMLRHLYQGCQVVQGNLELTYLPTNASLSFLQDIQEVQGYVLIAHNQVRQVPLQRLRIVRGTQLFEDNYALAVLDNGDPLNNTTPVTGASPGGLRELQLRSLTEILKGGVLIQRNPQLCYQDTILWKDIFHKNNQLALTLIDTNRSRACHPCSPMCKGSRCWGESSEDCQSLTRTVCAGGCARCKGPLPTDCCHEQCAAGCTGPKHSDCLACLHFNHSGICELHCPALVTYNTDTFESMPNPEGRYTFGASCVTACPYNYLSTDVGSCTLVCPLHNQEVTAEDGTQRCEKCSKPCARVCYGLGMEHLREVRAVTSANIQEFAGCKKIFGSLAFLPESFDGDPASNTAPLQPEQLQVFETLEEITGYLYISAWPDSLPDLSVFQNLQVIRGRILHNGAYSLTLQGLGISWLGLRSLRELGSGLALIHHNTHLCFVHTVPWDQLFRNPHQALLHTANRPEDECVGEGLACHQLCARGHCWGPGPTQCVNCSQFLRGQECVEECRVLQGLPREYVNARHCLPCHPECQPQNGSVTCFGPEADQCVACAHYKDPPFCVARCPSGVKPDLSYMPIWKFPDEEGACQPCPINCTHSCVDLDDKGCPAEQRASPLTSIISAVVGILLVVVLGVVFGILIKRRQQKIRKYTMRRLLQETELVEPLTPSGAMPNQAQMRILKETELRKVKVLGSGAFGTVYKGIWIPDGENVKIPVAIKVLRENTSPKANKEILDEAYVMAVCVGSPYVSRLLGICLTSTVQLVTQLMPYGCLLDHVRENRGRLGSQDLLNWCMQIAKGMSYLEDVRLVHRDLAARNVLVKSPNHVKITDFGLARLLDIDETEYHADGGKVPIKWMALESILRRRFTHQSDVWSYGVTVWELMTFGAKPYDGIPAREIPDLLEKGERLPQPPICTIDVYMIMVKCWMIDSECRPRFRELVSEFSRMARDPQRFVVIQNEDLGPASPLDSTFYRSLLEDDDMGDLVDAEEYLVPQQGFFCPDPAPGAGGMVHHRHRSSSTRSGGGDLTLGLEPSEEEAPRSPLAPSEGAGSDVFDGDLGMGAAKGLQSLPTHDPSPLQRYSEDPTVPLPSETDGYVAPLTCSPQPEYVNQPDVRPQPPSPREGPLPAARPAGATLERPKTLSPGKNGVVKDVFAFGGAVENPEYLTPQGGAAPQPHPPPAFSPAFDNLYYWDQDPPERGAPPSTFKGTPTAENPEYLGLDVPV
T5 sequence (P04626 whole entry L869R): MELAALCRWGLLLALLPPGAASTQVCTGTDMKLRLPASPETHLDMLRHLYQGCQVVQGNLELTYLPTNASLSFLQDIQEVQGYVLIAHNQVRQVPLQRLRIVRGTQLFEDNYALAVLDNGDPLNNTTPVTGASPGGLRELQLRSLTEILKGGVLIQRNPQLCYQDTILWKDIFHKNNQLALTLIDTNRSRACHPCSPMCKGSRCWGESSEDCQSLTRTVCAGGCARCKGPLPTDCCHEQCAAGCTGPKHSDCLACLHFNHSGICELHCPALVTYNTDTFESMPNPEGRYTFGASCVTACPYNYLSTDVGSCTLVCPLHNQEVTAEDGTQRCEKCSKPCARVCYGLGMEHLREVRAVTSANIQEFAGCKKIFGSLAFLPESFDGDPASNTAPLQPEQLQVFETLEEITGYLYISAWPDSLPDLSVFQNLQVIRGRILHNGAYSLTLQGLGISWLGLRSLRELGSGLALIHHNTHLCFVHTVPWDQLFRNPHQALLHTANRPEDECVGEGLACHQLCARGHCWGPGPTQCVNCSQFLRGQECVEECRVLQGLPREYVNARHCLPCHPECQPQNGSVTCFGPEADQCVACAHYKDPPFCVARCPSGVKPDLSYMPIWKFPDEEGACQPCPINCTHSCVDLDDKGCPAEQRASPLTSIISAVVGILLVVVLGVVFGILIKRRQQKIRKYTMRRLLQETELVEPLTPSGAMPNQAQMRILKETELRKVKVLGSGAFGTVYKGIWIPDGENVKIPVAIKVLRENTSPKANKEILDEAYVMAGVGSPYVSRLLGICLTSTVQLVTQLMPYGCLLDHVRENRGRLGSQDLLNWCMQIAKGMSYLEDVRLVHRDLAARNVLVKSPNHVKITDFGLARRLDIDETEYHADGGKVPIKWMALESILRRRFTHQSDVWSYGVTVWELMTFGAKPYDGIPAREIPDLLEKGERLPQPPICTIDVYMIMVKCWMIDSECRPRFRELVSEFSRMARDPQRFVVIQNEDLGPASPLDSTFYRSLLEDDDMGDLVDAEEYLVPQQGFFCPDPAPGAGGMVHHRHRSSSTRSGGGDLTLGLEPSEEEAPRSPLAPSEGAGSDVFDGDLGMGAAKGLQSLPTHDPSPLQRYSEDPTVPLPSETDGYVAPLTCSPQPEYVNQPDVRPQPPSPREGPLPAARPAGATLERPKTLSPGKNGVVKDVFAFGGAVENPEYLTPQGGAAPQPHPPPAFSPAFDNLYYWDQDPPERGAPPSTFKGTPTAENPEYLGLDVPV

Compound | GI50 [1] [nM] | GI50 [2] [nM] | GI50 [3] [nM] | GI50 [4] [nM] | GI50 [5] [nM] | GI50 [6] [nM] | GI50 [7] [nM] | GI50 [8] [nM] | GI50 [9] [nM]
CC#CC(=O)Nc1cc2c(Nc3ccc(Oc4ccn5ncnc5c4)c(C)c3)ncnc2cc1OCCN(C)C [Compound 150, N-[7-[2-(dimethylamino)ethoxy]-4-[(3-methyl-4-[[1,2,4]triazolo[1,5-a]pyridin-7-yloxy]phenyl)amino]quinazolin-6-yl]but-2-ynamide] | 2.63 | 13.6 | 1.73 | 2.12 | 4.31 | 56.9 | 3.01 | 11.4 | 8.42
CC#CC(=O)Nc1ccc2ncnc(Nc3ccc(Oc4ccn5ncnc5c4)c(C)c3)c2c1 [Compound 1, N-[4-[(3-methyl-4-[[1,2,4]triazolo[1,5-a]pyridin-7-yloxy]phenyl)amino]quinazolin-6-yl]but-2-ynamide] | 0.65 | 2.6 | < 1 | 1.5 | < 1 | 15 | < 1 | ~1 | 4.4
Cc1cc(Nc2ncnc3ccc(NC4=NC(C)(C)CO4)cc23)ccc1Oc1ccn2ncnc2c1 [Tucatinib, tucatinib, reference compound] | 25.3 | 193 | 11 | 26.5 | 63.5 | 1370 | 12.5 | 228 | 356
